# Data taken from patent EP1831198B1, “PYRIDINE CARBOXAMIDE DERIVATIVES FOR USE AS ANTICANCER AGENTS” (AstraZeneca AB, priority 2004, dated 2006).
# Molecular target: human recombinant, purified wild type His-B-Raf protein kinase (Homo sapiens, UniProt P15056)
# Assay: B-Raf in vitro ELISA assay
# Assay type: biochemical
# Conditions: phosphorylation of MEK1; 2.5 nM B-Raf, 0.15 µM MEK1, 10 µM ATP
# Text: Data was graphed and IC50s calculated using Excel Fit (Microsoft).
# Sequence of human recombinant, purified wild type His-B-Raf protein kinase (P15056 whole entry): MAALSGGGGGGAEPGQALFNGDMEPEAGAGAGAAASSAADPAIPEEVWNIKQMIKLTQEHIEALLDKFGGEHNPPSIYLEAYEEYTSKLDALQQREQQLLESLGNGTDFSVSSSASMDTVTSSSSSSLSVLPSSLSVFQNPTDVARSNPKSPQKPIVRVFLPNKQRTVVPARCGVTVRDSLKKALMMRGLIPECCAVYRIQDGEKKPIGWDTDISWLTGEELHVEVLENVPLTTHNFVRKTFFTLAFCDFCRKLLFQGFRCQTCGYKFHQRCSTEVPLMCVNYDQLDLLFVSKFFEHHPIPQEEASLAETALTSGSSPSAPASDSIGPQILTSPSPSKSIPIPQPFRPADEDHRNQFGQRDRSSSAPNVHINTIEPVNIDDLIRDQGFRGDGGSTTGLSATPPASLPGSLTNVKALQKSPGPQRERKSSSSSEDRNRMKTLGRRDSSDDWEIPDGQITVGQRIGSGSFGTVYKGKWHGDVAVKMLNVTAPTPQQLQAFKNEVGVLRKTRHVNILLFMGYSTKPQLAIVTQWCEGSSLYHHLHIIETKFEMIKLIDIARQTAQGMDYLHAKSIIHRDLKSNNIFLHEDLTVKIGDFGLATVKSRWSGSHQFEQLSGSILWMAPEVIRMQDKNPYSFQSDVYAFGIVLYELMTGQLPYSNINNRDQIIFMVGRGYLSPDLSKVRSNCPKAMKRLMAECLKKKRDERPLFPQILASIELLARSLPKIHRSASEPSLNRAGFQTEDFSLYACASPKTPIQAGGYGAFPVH
smiles,measurement,value
"Cc1ccc(NC(=O)c2cccc3c2OCC3)cc1C(=O)Nc1cccnc1 [Example 9, N-{4-Methyl-3-[(pyridin-3-ylamino)carbonyl]phenyl}-2,3-dihydro-1-benzofuran-7-carboxamide]",IC50,1.08 µM
